From patent publication US8895743B2, “Methysergide derivatives” (Map Pharmaceuticals, Inc., priority 2012, dated 2014)

What was measured:
Adrenergic α1A = molecular target: T1, Adrenergic α1A (Homo sapiens, UniProt P35348); assay: Aequorin agonist/antagonist assay, adrenergic α1A; format: cell-based; conditions: CHO-K1 mAeq, human receptor, antagonist mode; read-out: Activity (Antagonism: IC50), Adrenergic a1A
T1 construct: expressed in transfected cells; host or cells: CHO-K1 mAeq
Protocol: (§1) Receptor agonist/[…] assays were performed using 2-CF3-sergide. Table 1 summarizes the cell lines (CHO-K1/HEK293 transfected with relevant human receptor) and the assays performed to detect any agonist or antagonist activity.
(§2) Aequorin assays were conducted to monitor activity for 8′OH-2CF3-dihydroergotamine (8′OH-2CF3-DHE) against the receptors indicated in Table 1 above (except for mGlu3 and mGlu5). CHO-K1 cells coexpressing mitochondrial apoaequorin and the recombinant human receptor of interest were grown to mid-log phase in culture media without antibiotics and then detached with PBS-EDTA, centrifuged and resuspended in assay buffer (DMEM/HAM's F12 with HEPES, without phenol red+0.1% BSA, protease free) at a concentration of 1×10^6 cell/mL. […]
(§3) 50 μL of the cell suspension was mixed with 50 μL of test or reference agonist in a 96-well plate. The resulting emission of light was recorded using Hamamatsu Functional Drug Screening System 6000 (FDSS 6000) luminometer. […]
(§4) To standardize the emission of recorded light (and determine of the “100% signal”) across plates and across different experiments, some wells contained 100 μM digitonin or a saturating concentration of ATP (20 μM).

Adrenergic α1B = molecular target: T2, Adrenergic α1B (Homo sapiens, UniProt P35368); assay: Aequorin agonist/antagonist assay, adrenergic α1B; format: cell-based; conditions: CHO-K1 mAeq, human receptor, antagonist mode; read-out: Activity (Antagonism: IC50), Adrenergic a1B
T2 construct: expressed in transfected cells; host or cells: CHO-K1 mAeq
T2 sequence (P35368 whole entry): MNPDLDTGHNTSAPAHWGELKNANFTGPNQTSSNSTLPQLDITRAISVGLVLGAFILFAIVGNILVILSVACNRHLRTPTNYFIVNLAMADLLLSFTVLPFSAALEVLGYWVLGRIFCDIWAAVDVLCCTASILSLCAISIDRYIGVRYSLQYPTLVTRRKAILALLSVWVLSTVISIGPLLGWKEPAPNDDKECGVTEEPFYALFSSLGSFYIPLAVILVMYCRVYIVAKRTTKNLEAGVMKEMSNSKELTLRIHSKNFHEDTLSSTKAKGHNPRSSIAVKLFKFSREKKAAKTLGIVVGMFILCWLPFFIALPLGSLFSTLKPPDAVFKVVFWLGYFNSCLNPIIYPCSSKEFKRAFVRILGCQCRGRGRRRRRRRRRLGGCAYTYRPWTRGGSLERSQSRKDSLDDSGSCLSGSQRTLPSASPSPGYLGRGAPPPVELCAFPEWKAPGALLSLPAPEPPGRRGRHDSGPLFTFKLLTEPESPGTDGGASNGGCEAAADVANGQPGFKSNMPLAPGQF
Protocol: as §1, §2, §3, §4

Adrenergic α1D = molecular target: T3, Adrenergic α1D (Homo sapiens, UniProt P25100); assay: Aequorin agonist/antagonist assay, adrenergic α1D; format: cell-based; conditions: CHO-K1 mAeq, human receptor, antagonist mode; read-out: Activity (Antagonism: IC50), Adrenergic a1D
T3 construct: expressed in transfected cells; host or cells: CHO-K1 mAeq
Protocol: as §1, §2, §3, §4

Adrenergic α2A = molecular target: T4, Adrenergic α2A (Homo sapiens, UniProt P08913); assay: GTPγ[35S] assay, adrenergic α2A; format: biochemical; conditions: CHO-K1 human receptor membranes, antagonist mode; read-out: Activity (Antagonism: IC50), Adrenergic a2A
T4 construct: expressed in transfected cells; host or cells: CHO-K1 (membrane extracts)
T4 sequence (P08913 whole entry): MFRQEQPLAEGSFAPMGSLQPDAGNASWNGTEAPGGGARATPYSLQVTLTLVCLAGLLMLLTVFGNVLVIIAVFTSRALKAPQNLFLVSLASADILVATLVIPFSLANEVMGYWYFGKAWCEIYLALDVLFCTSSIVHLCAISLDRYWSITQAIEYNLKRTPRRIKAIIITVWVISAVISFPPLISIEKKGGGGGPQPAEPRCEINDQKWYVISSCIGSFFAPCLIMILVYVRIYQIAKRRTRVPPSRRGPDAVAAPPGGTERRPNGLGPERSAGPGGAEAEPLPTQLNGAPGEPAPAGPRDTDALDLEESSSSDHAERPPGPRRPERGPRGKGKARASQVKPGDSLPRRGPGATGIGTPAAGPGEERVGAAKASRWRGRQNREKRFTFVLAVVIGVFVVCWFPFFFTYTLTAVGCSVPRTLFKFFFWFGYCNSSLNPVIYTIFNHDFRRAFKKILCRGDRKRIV
Protocol: as §1
(§5) GTPγS studies were conducted to monitor agonist activity for 8′OH-2CF3-dihydroergotamine (8′OH-2CF3-DHE) against the receptors indicated in Table 1 above. Reagents used were the following: Assay buffer (20 mM HEPES, pH 7.4; 100 mM NaCl; 10 μg/mL saponin; 30 mM MgCl2); Membranes (recombinant human receptor membrane extracts were thawed on ice and diluted in assay buffer to give 1000 μg/mL ([…]) and kept on ice); GDP (diluted in assay buffer to give 30 μM solution (3 μM final concentration); beads (PVT-WGA (Amersham, RPNQ001), diluted in assay buffer at 25 mg/mL (0.25 mg/10 μL)); GTPγ^35S (Perkin Elmer, NEG030X), diluted in assay buffer to give 0.1 nM (final concentration); and ligand (agonist/antagonist diluted in assay buffer).
(§6) Membranes were mixed with GDP (1:1) and incubated for at least 15 minutes on ice. In parallel GTPγ^35S was mixed with the beads (1:1) just before starting the reaction. […] The plates were then centrifuged for 10 minutes at 2000 rpm and incubated at room temperature for 1 hour and counted for 1 min/well with a Perkin Elmer TopCount reader.

Adrenergic α2B = molecular target: T5, Adrenergic α2B (Homo sapiens, UniProt P18089); assay: GTPγ[35S] assay, adrenergic α2B; format: biochemical; conditions: CHO-K1 human receptor membranes, antagonist mode; read-out: Activity (Antagonism: IC50), Adrenergic a2B
T5 construct: expressed in transfected cells; host or cells: CHO-K1 (membrane extracts)
Protocol: as §1, §5, §6

Adrenergic α2C = molecular target: T6, Adrenergic α2C (Homo sapiens, UniProt P18825); assay: GTPγ[35S] assay, adrenergic α2C; format: biochemical; conditions: CHO-K1 human receptor membranes, antagonist mode; read-out: Activity (Antagonism: IC50), Adrenergic a2C
T6 construct: expressed in transfected cells; host or cells: CHO-K1 (membrane extracts)
T6 sequence (P18825 whole entry): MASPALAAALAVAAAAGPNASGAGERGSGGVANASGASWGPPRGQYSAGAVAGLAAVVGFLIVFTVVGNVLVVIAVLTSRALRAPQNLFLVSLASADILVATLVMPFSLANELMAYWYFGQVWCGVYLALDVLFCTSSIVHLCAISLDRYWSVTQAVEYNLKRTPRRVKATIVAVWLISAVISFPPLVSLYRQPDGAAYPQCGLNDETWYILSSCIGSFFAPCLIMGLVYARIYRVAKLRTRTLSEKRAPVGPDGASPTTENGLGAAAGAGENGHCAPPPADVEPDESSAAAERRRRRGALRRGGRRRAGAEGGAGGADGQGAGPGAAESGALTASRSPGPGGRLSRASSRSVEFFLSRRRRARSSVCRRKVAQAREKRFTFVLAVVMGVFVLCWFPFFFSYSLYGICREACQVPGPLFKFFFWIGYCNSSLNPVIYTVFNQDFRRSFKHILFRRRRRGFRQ
Protocol: as §1, §5, §6

Dopamine D1 = molecular target: T7, Dopamine D1 (Homo sapiens, UniProt P21728); assay: cAMP HTRF assay, dopamine D1; format: cell-based; conditions: CHO-K1, human receptor, agonist mode; read-out: Activity (Agonism: EC50), D1
T7 construct: expressed in transfected cells; host or cells: CHO-K1
Protocol: as §1
(§7) cAMP HTRF (Gs) studies were conducted to monitor activity for 8′OH-2CF3-dihydroergotamine (8′OH-2CF3-DHE) against the receptors indicated in Table 1 above. […] Lysis buffer was added and after a 1 hour incubation, cAMP concentrations was determined according to the manufacturer specification with the HTRF kit. […] Lysis buffer was added and after a 1 hour incubation, cAMP concentrations were determined according to the manufacturer specification, with the HTRF kit.
as §7, with “(Gi)” for “(Gs)”

Dopamine D2L = molecular target: T8, Dopamine D2L (Homo sapiens, UniProt P14416); assay: GTPγ[35S] assay, dopamine D2L; format: biochemical
T8 construct: expressed in transfected cells; host or cells: CHO-K1 (membrane extracts)
T8 sequence (P14416 whole entry): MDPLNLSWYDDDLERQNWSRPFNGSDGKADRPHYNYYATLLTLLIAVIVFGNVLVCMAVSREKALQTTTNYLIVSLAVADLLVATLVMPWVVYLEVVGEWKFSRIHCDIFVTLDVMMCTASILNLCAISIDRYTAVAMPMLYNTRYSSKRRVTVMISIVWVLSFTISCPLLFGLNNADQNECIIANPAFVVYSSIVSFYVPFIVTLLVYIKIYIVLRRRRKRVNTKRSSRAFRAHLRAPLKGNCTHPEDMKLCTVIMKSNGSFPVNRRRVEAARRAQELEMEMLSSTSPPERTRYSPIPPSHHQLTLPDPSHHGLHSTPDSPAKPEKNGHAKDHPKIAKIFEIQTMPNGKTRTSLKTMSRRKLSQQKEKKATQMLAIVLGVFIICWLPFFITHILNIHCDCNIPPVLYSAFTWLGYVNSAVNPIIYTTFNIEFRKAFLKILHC
Protocol: as §1, §5, §6

Dopamine D3 = molecular target: T9, Dopamine D3 (Homo sapiens, UniProt P35462); assay: GTPγ[35S] assay, dopamine D3; format: biochemical
T9 construct: expressed in transfected cells; host or cells: CHO-K1 (membrane extracts)
T9 sequence (P35462 whole entry): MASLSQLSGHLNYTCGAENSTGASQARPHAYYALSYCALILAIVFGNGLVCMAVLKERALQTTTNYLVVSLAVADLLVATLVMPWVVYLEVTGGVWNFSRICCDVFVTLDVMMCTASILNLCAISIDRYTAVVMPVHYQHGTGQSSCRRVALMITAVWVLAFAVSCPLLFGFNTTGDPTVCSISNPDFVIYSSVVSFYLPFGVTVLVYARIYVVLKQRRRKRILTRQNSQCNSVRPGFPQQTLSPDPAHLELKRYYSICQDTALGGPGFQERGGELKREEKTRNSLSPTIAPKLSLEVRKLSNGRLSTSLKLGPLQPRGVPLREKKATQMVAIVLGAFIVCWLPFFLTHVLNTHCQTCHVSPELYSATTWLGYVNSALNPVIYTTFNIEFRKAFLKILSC
Protocol: as §1, §5, §6

Dopamine D4 = molecular target: T10, Dopamine D4 (Homo sapiens, UniProt P21917); assay: GTPγ[35S] assay, dopamine D4; format: biochemical
T10 construct: expressed in transfected cells; host or cells: CHO-K1 (membrane extracts)
T10 sequence (P21917 whole entry): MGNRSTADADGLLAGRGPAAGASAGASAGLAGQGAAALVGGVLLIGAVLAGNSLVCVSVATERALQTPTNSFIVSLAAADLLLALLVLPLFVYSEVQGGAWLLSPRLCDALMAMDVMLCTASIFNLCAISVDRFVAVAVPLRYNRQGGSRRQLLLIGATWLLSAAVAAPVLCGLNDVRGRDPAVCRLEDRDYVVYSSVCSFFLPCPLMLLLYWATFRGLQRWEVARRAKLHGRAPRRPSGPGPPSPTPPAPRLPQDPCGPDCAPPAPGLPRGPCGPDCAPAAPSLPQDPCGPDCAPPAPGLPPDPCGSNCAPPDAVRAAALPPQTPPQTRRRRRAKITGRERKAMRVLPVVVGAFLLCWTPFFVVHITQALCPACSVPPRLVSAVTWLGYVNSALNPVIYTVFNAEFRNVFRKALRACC
Protocol: as §1, §5, §6

Serotonin 5-HT1A = molecular target: T11, Serotonin 5-HT1A (Homo sapiens, UniProt P08908); assay: GTPγ[35S] assay, serotonin 5-HT1A; format: biochemical
T11 construct: expressed in transfected cells; host or cells: CHO-K1 (membrane extracts)
T11 sequence (P08908 whole entry): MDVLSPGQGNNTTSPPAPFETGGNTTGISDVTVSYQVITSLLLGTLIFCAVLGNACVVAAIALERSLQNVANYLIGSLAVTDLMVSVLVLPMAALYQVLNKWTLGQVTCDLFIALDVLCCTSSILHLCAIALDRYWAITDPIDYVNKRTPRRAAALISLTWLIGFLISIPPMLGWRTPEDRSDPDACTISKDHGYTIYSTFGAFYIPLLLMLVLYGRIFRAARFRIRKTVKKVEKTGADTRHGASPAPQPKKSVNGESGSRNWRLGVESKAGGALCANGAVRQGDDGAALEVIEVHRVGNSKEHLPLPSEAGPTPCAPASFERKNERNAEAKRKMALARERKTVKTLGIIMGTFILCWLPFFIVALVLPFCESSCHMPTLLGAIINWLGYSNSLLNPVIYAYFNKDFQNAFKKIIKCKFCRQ
Protocol: as §1, §5, §6

Serotonin 5-HT1B = molecular target: T12, Serotonin 5-HT1B (Homo sapiens, UniProt P28222); assay: GTPγ[35S] assay, serotonin 5-HT1B; format: biochemical; conditions: CHO-K1 human receptor membranes, agonist mode; read-out: Activity (Agonism: EC50), 5-HT1B
T12 construct: expressed in transfected cells; host or cells: CHO-K1 (membrane extracts)
T12 sequence (P28222 whole entry): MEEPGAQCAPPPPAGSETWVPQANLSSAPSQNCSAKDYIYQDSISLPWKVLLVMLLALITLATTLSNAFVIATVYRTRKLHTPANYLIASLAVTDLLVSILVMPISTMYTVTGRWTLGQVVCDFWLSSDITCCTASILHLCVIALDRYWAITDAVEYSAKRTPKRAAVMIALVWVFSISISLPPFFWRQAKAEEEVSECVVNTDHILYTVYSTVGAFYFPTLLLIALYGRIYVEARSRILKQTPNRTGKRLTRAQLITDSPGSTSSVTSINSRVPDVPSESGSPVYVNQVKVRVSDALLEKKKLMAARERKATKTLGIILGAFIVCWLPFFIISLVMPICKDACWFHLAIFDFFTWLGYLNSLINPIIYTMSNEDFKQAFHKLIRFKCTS
Protocol: as §1, §5, §6

Serotonin 5-HT1D = molecular target: T13, Serotonin 5-HT1D (Homo sapiens, UniProt P28221); assay: GTPγ[35S] assay, serotonin 5-HT1D; format: biochemical; conditions: CHO-K1 human receptor membranes, agonist mode; read-out: Activity (Agonism: EC50), 5-HT1D
T13 construct: expressed in transfected cells; host or cells: CHO-K1 (membrane extracts)
T13 sequence (P28221 whole entry): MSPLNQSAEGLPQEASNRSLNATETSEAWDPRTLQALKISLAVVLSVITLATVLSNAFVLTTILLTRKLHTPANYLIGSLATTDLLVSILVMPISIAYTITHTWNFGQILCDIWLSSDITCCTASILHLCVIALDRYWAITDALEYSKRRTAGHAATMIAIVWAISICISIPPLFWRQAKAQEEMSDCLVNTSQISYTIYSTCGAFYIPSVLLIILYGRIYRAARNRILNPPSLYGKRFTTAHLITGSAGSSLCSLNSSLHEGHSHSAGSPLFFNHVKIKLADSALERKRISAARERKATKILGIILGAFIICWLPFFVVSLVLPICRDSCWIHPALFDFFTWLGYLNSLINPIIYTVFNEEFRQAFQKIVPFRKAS
Protocol: as §1, §5, §6

Serotonin 5-HT1F = molecular target: T14, Serotonin 5-HT1F (Homo sapiens, UniProt P30939); assay: cAMP HTRF assay, serotonin 5-HT1F; format: cell-based; conditions: CHO-K1, human receptor, agonist mode; read-out: Activity (Agonism: EC50), 5-HT1F
T14 construct: expressed in transfected cells; host or cells: CHO-K1
Protocol: as §1, §7
as §7, with “(Gi)” for “(Gs)”

Serotonin 5-HT2A = molecular target: T15, Serotonin 5-HT2A (Homo sapiens, UniProt P28223); assay: Aequorin assay, serotonin 5-HT2A; format: cell-based; conditions: CHO-K1 mAeq Gα16, human receptor, agonist mode; read-out: Activity (Agonism: EC50), 5-HT2A
T15 construct: expressed in transfected cells; host or cells: CHO-K1 mAeq Gα16
T15 sequence (P28223 whole entry): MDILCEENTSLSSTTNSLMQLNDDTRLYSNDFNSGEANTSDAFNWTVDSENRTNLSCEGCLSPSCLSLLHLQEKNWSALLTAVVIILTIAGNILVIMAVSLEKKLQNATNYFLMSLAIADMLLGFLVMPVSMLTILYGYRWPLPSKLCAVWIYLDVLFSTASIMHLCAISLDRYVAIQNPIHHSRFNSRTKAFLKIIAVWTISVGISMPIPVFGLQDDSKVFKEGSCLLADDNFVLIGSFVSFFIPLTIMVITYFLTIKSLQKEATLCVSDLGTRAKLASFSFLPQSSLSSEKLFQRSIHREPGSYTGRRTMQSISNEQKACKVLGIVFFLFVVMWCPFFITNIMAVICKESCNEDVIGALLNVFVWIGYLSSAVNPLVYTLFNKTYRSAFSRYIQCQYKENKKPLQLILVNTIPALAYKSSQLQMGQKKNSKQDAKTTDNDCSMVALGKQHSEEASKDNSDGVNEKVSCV
Protocol: as §1, §2, §3, §4

Serotonin 5-HT2B = molecular target: T16, Serotonin 5-HT2B (Homo sapiens, UniProt P41595); assay: Aequorin assay, serotonin 5-HT2B; format: cell-based
T16 construct: expressed in transfected cells; host or cells: CHO-K1 mAeq Gα16
T16 sequence (P41595 whole entry): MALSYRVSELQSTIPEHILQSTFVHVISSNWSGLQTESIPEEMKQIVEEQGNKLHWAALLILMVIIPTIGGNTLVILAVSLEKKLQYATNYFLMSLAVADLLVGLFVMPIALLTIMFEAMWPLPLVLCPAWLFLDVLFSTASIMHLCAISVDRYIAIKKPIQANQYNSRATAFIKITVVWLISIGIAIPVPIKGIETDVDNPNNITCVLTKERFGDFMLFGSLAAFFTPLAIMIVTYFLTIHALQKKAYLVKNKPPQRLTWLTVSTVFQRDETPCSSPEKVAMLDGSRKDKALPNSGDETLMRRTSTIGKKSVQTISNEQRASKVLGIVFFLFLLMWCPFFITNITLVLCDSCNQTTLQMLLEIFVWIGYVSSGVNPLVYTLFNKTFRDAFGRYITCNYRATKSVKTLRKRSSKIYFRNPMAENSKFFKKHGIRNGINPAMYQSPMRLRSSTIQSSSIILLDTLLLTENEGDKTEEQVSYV
Protocol: as §1, §2, §3, §4

Serotonin 5-HT3 = molecular target: T17, Serotonin 5-HT3 (Homo sapiens, UniProt P46098); assay: Aequorin assay, serotonin 5-HT3; format: cell-based; conditions: HEK-293 mAeq, human receptor, antagonist mode; read-out: Activity (Antagonism: IC50), 5-HT3
T17 construct: expressed in transfected cells; host or cells: HEK-293 mAeq
Protocol: as §1, §2, §3, §4

mGlu7 = molecular target: T18, mGlu7 (Homo sapiens, UniProt Q14831); assay: cAMP HTRF assay, mGluR7; format: cell-based; conditions: CHO-K1, human receptor, agonist mode; read-out: Activity (Agonism: EC50), mGlu7
T18 construct: expressed in transfected cells; host or cells: CHO-K1
Protocol: as §1, §7
as §7, with “(Gi)” for “(Gs)”

[1] = test system: VIP/PACAP (PAC1/VPAC/VPAC2); assay: Aequorin assays, VIP/PACAP receptors; format: cell-based; conditions: CHO-AEQ, human receptors
Protocol: as §1, §2, §3, §4

[2] = test system: Cholecystokinin (CCK1/CCK2); assay: Aequorin assays, cholecystokinin receptors; format: cell-based; conditions: CHO-AEQ, human receptors
Protocol: as §1, §2, §3, §4

Somatostatin (SST1~SSTS) = assay: GTPγ[35S] assays, somatostatin receptors; format: biochemical; conditions: CHO-K1 human receptor membranes
Protocol: as §1, §5, §6

Calcitonin (AM1/AM2) = assay: cAMP HTRF assays, calcitonin AM1/AM2 receptors; format: cell-based; conditions: CHO-K1, human receptors
Protocol: as §1, §7
as §7, with “(Gi)” for “(Gs)”

Opioid (OP1/OP2/OP3) = assay: GTPγ[35S] assays, opioid receptors; format: biochemical; conditions: CHO-K1 human receptor membranes
Protocol: as §1, §5, §6

Calcitonin (CGRP) = molecular target: T19, Calcitonin (CGRP) (Homo sapiens, UniProt O60894+Q16602); assay: Aequorin assay, CGRP receptor; format: cell-based; conditions: CHO-AEQ
T19 construct: expressed in transfected cells; host or cells: CHO-AEQ
Protocol: as §1, §2, §3, §4

Orexin (OX1/OX2) = assay: Aequorin assays, orexin receptors; format: cell-based; conditions: CHO-AEQ, human receptors
Protocol: as §1, §2, §3, §4

Neurokinin (NK1/NK2/NK3) = assay: Aequorin assays, neurokinin receptors; format: cell-based; conditions: CHO-AEQ, human receptors, antagonist mode; cell names OP2; read-out: Activity (Antagonism: IC50), OP2, in row Neurokinin (NK1/NK2/NK3)
Protocol: as §1, §2, §3, §4

Adenosine A2a = molecular target: T20, Adenosine A2a (Homo sapiens, UniProt P29274); assay: cAMP HTRF assay, adenosine A2a; format: cell-based; conditions: HEK293, human receptor
T20 construct: expressed in transfected cells
Protocol: as §1, §7
as §7, with “(Gi)” for “(Gs)”

Compound: CC[C@@H](CO)NC(=O)[C@@H]1C=C2c3cccc4[nH]c(C(F)(F)F)c(c34)C[C@H]2N(C)C1 [2-CF3-sergide]
- IC50 (Adrenergic α1A): > 10 µM
- IC50 (Adrenergic α1B): > 1000 nM
- IC50 (Adrenergic α1D): 38 nM
- IC50 (Adrenergic α2A): > 10 µM
- IC50 (Adrenergic α2B): > 1000 nM
- IC50 (Adrenergic α2C): > 10 µM
- EC50 (Dopamine D1): 257 nM
- IC50 (Dopamine D2L; CHO-K1 human receptor membranes, antagonist mode, read-out: Activity (Antagonism: IC50), D2L): > 1000 nM
- Receptor activity at the D2L dopaminergic receptor (in words) (Dopamine D2L; summary of Table 2): receptor antagonism
- IC50 (Dopamine D3; CHO-K1 human receptor membranes, antagonist mode, read-out: Activity (Antagonism: IC50), D3): > 1000 nM
- Receptor activity at the D3 dopaminergic receptor (in words) (Dopamine D3; summary of Table 2): receptor antagonism
- IC50 (Dopamine D4; CHO-K1 human receptor membranes, antagonist mode, read-out: Activity (Antagonism: IC50), D4): > 1000 nM
- Receptor activity at the D4 dopaminergic receptor (in words) (Dopamine D4; summary of Table 2): receptor antagonism
- EC50 (Serotonin 5-HT1A; CHO-K1 human receptor membranes, agonist mode, read-out: Activity (Agonism: EC50), 5-HT1A): 258 nM
- Receptor activity on the 5-HT1A receptor (in words) (Serotonin 5-HT1A; summary of Table 2): agonistic activity
- EC50 (Serotonin 5-HT1B): 128 nM
- EC50 (Serotonin 5-HT1D): 98 nM
- EC50 (Serotonin 5-HT1F): 254 nM
- EC50 (Serotonin 5-HT2A): 1100 nM
- IC50 (Serotonin 5-HT2B; CHO-K1 mAeq Gα16, human receptor, antagonist mode, read-out: Activity (Antagonism: IC50), 5-HT2B): 42 nM
- Receptor activity at the 5-HT2B receptor (in words) (Serotonin 5-HT2B; summary of Table 2): full receptor antagonism
- IC50 (Serotonin 5-HT3): > 1000 nM
- EC50 (mGlu7): 46.5 nM
- Activity (Agonism: EC50; Antagonism: IC50), VIP/PACAP (PAC1/VPAC/VPAC2) [1]: Inactive
- Activity (Agonism: EC50; Antagonism: IC50), Cholecystokinin (CCK1/CCK2) [2]: Inactive
- Activity (Agonism: EC50; Antagonism: IC50), Somatostatin (SST1~SSTS) (Somatostatin (SST1~SSTS)): Inactive
- Activity (Agonism: EC50; Antagonism: IC50), Calcitonin (AM1/AM2) (Calcitonin (AM1/AM2)): Inactive
- Activity (Agonism: EC50; Antagonism: IC50), Opioid (OP1/OP2/OP3) (Opioid (OP1/OP2/OP3)): Inactive
- Activity (Agonism: EC50; Antagonism: IC50), Calcitonin (CGRP) (Calcitonin (CGRP)): Inactive
- Activity (Agonism: EC50; Antagonism: IC50), Orexin (OX1/OX2) (Orexin (OX1/OX2)): Inactive
- IC50 (Neurokinin (NK1/NK2/NK3)): > 1000 nM
- Activity (Agonism: EC50; Antagonism: IC50), Adenosine A2a (Adenosine A2a): Inactive
